From PMC9606955, “In Vitro Activity of Essential Oils Distilled from Colombian Plants against Candida auris and Other Candida Species with Different Antifungal Susceptibility Profiles” (Molecules, 2022)
≈ marks a conversion by molar mass, not a printed value.

Tests used:
[1] = test system: C. metapsilosis MUM 15.12; test: MIC, CLSI M27 broth microdilution; format: cell-based, Candida metapsilosis; settings: C. metapsilosis MUM 15.12, antifungal drugs; for MIC: Lodderomyces metapsilosis, MUM15.12, geometric mean, read-out: MIC GM
Procedure, shortened: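 Endpoint: visible growth inhibition versus control, read by eye after 24 h incubation at 35 °C. Broth microdilution in RPMI 1640-MOPS, 2.5 × 10^3 CFU/mL inoculum, compounds tested from 0.5 up to 256 µg/mL final. Reported as geometric mean and range.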

[2] = test system: C. albicans ATCC 10231, C. tropicalis ATCC 200956, and C. auris CDC B11903; test: Time–kill assay, control drugs; format: cell-based, Candida spp.; settings: fungicidal and fungistatic control drugs
Protocol: Time–kill assays with the L. origanoides (thymol + p-cymene) chemotype (Code 0018) EO, thymol, FLC, and AMB against C. albicans ATCC 10231, C. tropicalis ATCC 200956, and C. auris CDC B11903 were performed according to the protocol published by Klebser et al. with some modifications. […] Absorbance at λ = 490 nm was measured every 2 h with a Multiskan SkyHigh Microplate Spectrophotometer. AMB and FLC were included as fungicidal and fungistatic control drugs, respectively.

[3] = test system: C. auris; test: MIC, CLSI M27 broth microdilution, several C. auris strains together; format: cell-based, Candida auris; settings: C. auris Ca 41, Ca 45 and Ca 46 together
Text: The fungal strains used in this study were C. albicans ATCC 10231, C. albicans ATCC 64550, C. parapsilosis ATCC 22019, C. tropicalis ATCC 750, C. tropicalis ATCC 200956 (resistant to azoles and AMB), C. glabrata LMDM 34 (resistant to echinocandins), C. metapsilosis MUM 15.12, C. orthopsilosis MUM 17.13, C. lusitaniae MUM 17.08, C. krusei ATCC 6258 (Issatchenkia orientalis ATCC 6258), and C. auris CDC B11903. Additionally, nine clinical isolates were included: C. parapsilosis Synlab 406 (FLC-resistant) and eight C. auris isolates identified by MALDI-TOF MS (Bruker Daltonics, Bremen, Germany) according to Zhao et al.. These yeasts were cultured on Sabouraud Dextrose Agar (SDA; Sigma-Aldrich, St. Louis, MO, USA) for 24 h at 35 °C.
Antifungal susceptibility testing was performed according to Clinical and Laboratory Standards Institute M27, 4th Edition (CLSI standard M27, 4th Edition). […] MICs were visually determined at the lowest concentration that produced visual inhibition compared to the growth control. […] The results were expressed as geometric means (GM) and ranges. As an antifungal susceptibility testing control, the activity of ITC and AMB against the reference strains C. krusei ATCC 6258 and C. parapsilosis ATCC 22019 was evaluated in all experiments following the CLSI standard M27, 4th Edition. […]

MIC Range [3] [mg/L]	SMILES	MIC Range [1] [mg/L]	MIC [1] [mg/L]	effect in time–kill assay (control drugs) [2]
–	OC(Cn1cncn1)(Cn1cncn1)c1ccc(F)cc1F [FLC, fluconazole]	1 to 2	1.4 (≈ 4.57 µM)	fungistatic
1 to 2	C[C@@H]1[C@H](O)[C@@H](C)/C=C/C=C/C=C/C=C/C=C/C=C/C=C/[C@H](O[C@@H]2O[C@H](C)[C@@H](O)[C@H](N)[C@@H]2O)C[C@@H]2O[C@](O)(C[C@@H](O)C[C@@H](O)[C@H](O)CC[C@@H](O)C[C@@H](O)CC(=O)O[C@H]1C)C[C@H](O)[C@H]2C(=O)O [AMB, amphotericin B]	<0.03	< 0.03	fungicidal
